Patent US10689359B2, “Crystals of quinazoline derivative and preparation method therefor” (Xuanzhu Pharma Co., Ltd., priority 2015, dated 2020)

Key:
[1] = molecular target: EGFR (Homo sapiens, UniProt P00533); details: cited from earlier work
[2] = system: erlotinib-resistant H1975 cell line; details: cited from earlier work
[3] = system: HER2/4; details: cited from earlier work
[4] = Study on stability of Crystal form I, II and III (influencing factors; character, moisture content, relevant substances by HPLC, XRPD); format: physicochemical
Method: The samples were tested for character, relevant substances, moisture content, XRPD pattern, etc. […] The samples were tested for relevant substances, content, character, moisture content, XRPD pattern, etc. During the study, the uncovered experimental samples were kept in cultured dishes in the air. […] During the study, the uncovered experimental samples were kept in cultured dishes in the air. […] With respect to relevant substances, in accordance with High Performance Liquid Chromatography in Appendix V D in Pharmacopoeia of the People's Republic of China (2010), the samples were determined by area normalization method. Instrument: High Performance Liquid Chromatographic Instrument (Agilent 1200/1260 series) Chromatographic column: chromatographic column using octylsilane chemically bonded silica as filler (HC-C8, 4.6×250 mm, 5 μm) Column temperature: 30° C. Detection wavelength: 230 nm Mobile phase: mobile phase consisting of 0.03 mol/L diammonium hydrogen phosphate/0.03 mol/L sodium perchlorate solution-acetonitrile, and reversed-phase gradient elution was employed. Flow rate: 1.0 mL/min Injection volume: 10 μL Method for determining moisture content: the moisture content was determined in accordance with First Method for Determining Moisture Content B (Coulometric Titration) in Appendix VIII M in Pharmacopoeia of the People's Republic of China (2010).

[5] = Comparison of stability between crystal forms and amorphous form, 60° C. uncovered, relevant substances by HPLC; format: physicochemical
Method: Instrument: High Performance Liquid Chromatographic Instrument (Agilent 1260 series) Chromatographic column: chromatographic column using octylsilane chemically bonded silica as filler (HC-C8, 4.6×250 mm, 5 μm) Column temperature: 30° C. Detection wavelength: 230 nm Mobile phase: Mobile phase consisting of 0.06 mol/L sodium dihydrogen phosphate/0.06 mol/L sodium perchlorate solution-acetonitrile, and reversed-phase gradient elution was employed. Flow rate: 1.0 mL/min Injection volume: 10 μL

[6] = Evaluation on pharmacokinetics in SD rats, intragastric administration; format: in vivo; details: 5 mg/kg
Method: An amorphous form of a compound of Formula (I), the preparation method of which could be found in the particular Examples as disclosed in the international patent application (Publication No. WO 2012027960 A1).
Test animal: SD rats, male, weighed 190-250 g, 6 rats for each crystal form, purchased from Beijing Vital River Laboratory Animal Technology Co., Ltd.
Administration route: intragastric administration, at an administration dose of 5 mg/kg, and an administration volume of 10 mL/kg.
Blood collection: whole blood (about 100 μL) was collected from tail vein 10 min, 30 min, 1 h, 2 h, 4 h, 6 h, 8 h, and 24 h after administration, and added to K2EDTA-containing anticoagulation tubes. The whole blood sample was centrifuged for 6 min at 4° C., 8000 rpm in a high speed centrifuge, and plasma was separated. Plasma needed to be prepared within 30 min after blood collection, and stored at −80° C. in a refrigerator.
Plasma sample analysis: the plasma samples were analyzed by protein precipitation: to plasma (20 μL), an internal standard Gefitinib (200 μL, 50 ng/mL acetonitrile solution) was added; the resultant mixture was vortexed at 500 rpm for 5 min, and centrifuged at 4000 rpm for 20 min in a high speed centrifuge; to the supernatant (100 μL), water (100 μL) was added; the resultant mixture was mixed homogeneously under vortexing and analyzed by LC-MS/MS for blood concentration.
Calculation for PK parameters: PK parameters were calculated by using Pharsight Phoenix 6.2 software.

[7] = 10 days, 40° C./RH75% uncovered
[8] = influencing factor condition for 10 days

EGFR, sequence (P00533 25-1210): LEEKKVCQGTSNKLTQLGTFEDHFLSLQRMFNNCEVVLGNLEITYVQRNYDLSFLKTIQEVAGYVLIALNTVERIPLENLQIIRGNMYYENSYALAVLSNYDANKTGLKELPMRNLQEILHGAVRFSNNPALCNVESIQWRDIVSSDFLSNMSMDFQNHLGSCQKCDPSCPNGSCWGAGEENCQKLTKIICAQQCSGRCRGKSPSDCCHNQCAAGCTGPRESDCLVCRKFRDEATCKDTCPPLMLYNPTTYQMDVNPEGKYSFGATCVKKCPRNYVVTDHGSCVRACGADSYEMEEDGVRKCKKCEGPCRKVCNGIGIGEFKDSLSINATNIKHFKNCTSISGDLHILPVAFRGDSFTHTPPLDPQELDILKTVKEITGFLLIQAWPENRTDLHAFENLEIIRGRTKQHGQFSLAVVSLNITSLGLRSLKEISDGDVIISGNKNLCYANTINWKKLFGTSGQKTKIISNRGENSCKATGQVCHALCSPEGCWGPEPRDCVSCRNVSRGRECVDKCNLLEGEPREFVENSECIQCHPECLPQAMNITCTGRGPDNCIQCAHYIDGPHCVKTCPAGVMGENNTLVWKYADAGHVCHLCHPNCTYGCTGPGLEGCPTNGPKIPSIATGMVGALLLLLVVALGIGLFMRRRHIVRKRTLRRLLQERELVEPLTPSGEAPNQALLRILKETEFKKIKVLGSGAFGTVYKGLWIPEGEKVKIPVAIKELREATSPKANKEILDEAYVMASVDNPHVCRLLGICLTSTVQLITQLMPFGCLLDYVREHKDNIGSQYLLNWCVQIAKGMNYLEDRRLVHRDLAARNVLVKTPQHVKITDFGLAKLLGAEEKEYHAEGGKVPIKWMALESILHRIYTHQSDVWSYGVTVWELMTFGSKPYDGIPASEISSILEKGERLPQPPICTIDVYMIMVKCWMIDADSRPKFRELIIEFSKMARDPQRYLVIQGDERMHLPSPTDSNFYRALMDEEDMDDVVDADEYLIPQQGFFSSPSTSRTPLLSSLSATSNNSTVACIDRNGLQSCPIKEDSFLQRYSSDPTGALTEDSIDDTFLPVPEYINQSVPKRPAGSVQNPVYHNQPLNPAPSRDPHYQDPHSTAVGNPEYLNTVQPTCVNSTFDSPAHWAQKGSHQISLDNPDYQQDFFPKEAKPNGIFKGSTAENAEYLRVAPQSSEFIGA

For `C=CC(=O)Nc1cc2c(Nc3ccc(F)c(Cl)c3)ncnc2cc1OCC1CC2(CCN(C)CC2)C1` [Formula (I), N-(4-((3-chloro-4-fluorophenyl)amino)-7-((7-methyl-7-azaspiro[3.5]nonan-2-yl)methoxy)quinazolin-6-yl)acrylamide], the “Inhibition of EGFR” value [1] is listed as “effectively inhibit”, the “Inhibition of erlotinib-resistant H1975 cell line” value [2] is listed as “significantly inhibitory effect” and the “Inhibition of HER2/4” value [3] is listed as “inhibitory effect”.

In the case of `C=CC(=O)Nc1cc2c(Nc3ccc(F)c(Cl)c3)ncnc2cc1OCC1CC2(CCN(C)CC2)C1` [Crystal form II, N-(4-((3-chloro-4-fluorophenyl)amino)-7-((7-methyl-7-azaspiro[3.5]nonan-2-yl)methoxy)quinazolin-6-yl)acrylamide], the Character ([4]; 0 day) is reported as “light yellow”, the Crystal form ([4]; 0 day) is reported as “Crystal” and the Moisture content ([4]; 0 day) is reported as 3.5%. The Relevant substance ([4]; 0 day) was 0.37%, the Character ([4]; 5 days, 40° C./RH75% covered) was “light yellow” and the Crystal form ([4]; 5 days, 40° C./RH75% covered) was “the same”. The Moisture content ([4]; 5 days, 40° C./RH75% covered) was 3.6%, the Relevant substance ([4]; 5 days, 40° C./RH75% covered) was 0.34% and the Character ([4]; 5 days, 40° C./RH75% uncovered) was “light yellow”. For the same compound, the Crystal form ([4]; 5 days, 40° C./RH75% uncovered) was “the same”, the Moisture content ([4]; 5 days, 40° C./RH75% uncovered) was 3.7% and the Relevant substance ([4]; 5 days, 40° C./RH75% uncovered) was 0.38%. The Character ([4]; 5 days, 60° C. covered) was “light yellow”, the Crystal form ([4]; 5 days, 60° C. covered) was “the same” and the Moisture content ([4]; 5 days, 60° C. covered) was 3.6%. The Relevant substance ([4]; 5 days, 60° C. covered) was 0.33%, the Character ([4]; 5 days, 60° C. uncovered) was “light yellow” and the Crystal form ([4]; 5 days, 60° C. uncovered) was “the same”. The Moisture content ([4]; 5 days, 60° C. uncovered) was 3.6%, the Relevant substance ([4]; 5 days, 60° C. uncovered) was 0.35% and the Character ([4]; 5 days, RH-75%) was “light yellow”. The Crystal form ([4]; 5 days, RH-75%) was “the same”, the Moisture content ([4]; 5 days, RH-75%) was 3.6% and the Relevant substance ([4]; 5 days, RH-75%) was 0.35%. For the same compound, the Character ([4]; 5 days, RH-92.5%) was “light yellow”, the Crystal form ([4]; 5 days, RH-92.5%) was “the same” and the Moisture content ([4]; 5 days, RH-92.5%) was 3.7%. The Relevant substance ([4]; 5 days, RH-92.5%) was 0.36%, the Character ([4]; 5 days, light) was “light yellow” and the Crystal form ([4]; 5 days, light) was “the same”. The Moisture content ([4]; 5 days, light) was 3.7%, the Relevant substance ([4]; 5 days, light) was 0.35% and the Character ([4]; 10 days, 40° C./RH75% covered) was “light yellow”. For the same compound, the Crystal form ([4]; 10 days, 40° C./RH75% covered) was “the same”, the Moisture content ([4]; 10 days, 40° C./RH75% covered) was 3.6% and the Relevant substance ([4]; 10 days, 40° C./RH75% covered) was 0.33%. For the same compound, the Character [4, 7] was “light yellow”, the Crystal form [4, 7] was “the same” and the Moisture content [4, 7] was 3.8%. The Relevant substance [4, 7] was 0.33%, the Character ([4]; 10 days, 60° C. covered) was “light yellow” and the Crystal form ([4]; 10 days, 60° C. covered) was “the same”. For the same compound, the Moisture content ([4]; 10 days, 60° C. covered) was 3.7%, the Relevant substance ([4]; 10 days, 60° C. covered) was 0.36% and the Character ([4]; 10 days, 60° C. uncovered) was “light yellow”. For the same compound, the Crystal form ([4]; 10 days, 60° C. uncovered) was “the same”, the Moisture content ([4]; 10 days, 60° C. uncovered) was 3.7% and the Relevant substance ([4]; 10 days, 60° C. uncovered) was 0.43%. The Character ([4]; 10 days, RH-75%) was “light yellow”, the Crystal form ([4]; 10 days, RH-75%) was “the same” and the Moisture content ([4]; 10 days, RH-75%) was 3.7%. The Relevant substance ([4]; 10 days, RH-75%) was 0.36%, the Character ([4]; 10 days, RH-92.5%) was “light yellow” and the Crystal form ([4]; 10 days, RH-92.5%) was “the same”. The Moisture content ([4]; 10 days, RH-92.5%) was 3.7%, the Relevant substance ([4]; 10 days, RH-92.5%) was 0.34% and the Character ([4]; 10 days, light) was “light yellow”. For the same compound, the Crystal form ([4]; 10 days, light) was “the same”, the Moisture content ([4]; 10 days, light) was 3.7% and the Relevant substance ([4]; 10 days, light) was 0.35%. The “Change in Crystal form (XRPD pattern test)” value [4, 8] was “no change”, the Change in impurities [4, 8] was “no significant change” and the “Stability of the samples (conclusion)” value ([4]; influencing factor conditions (high temperature, high moisture, light), 10 days) was “relatively stable”. For the same compound, the Total relevant substances ([5]; 0 day) was 0.64%, the “Change in total relevant substances (conclusion)” value ([5]; 60° C. uncovered, 5 days and 10 days) was “little increase in total relevant substances” and the Total relevant substances ([5]; 60° C. uncovered-5 days) was 0.66%. For the same compound, the Total relevant substances ([5]; 60° C. uncovered-10 days) was 0.70%, the “Pharmacokinetic properties (conclusion)” value [6] was “good pharmacokinetic properties” and the AUC0-t ([6]; suspension in water) was 1536 ng·h/mL. For the same compound, the AUCinf ([6]; suspension in water) was 1591 ng·h/mL, the “Cmax (maximum blood concentration)” value ([6]; suspension in water) was 135 ng/mL and the “T1/2 (drug elimination half-life)” value ([6]; suspension in water) was 4.59 h. For the same compound, the “Tmax (time to maximum blood concentration)” value ([6]; suspension in water) was 3 h.
